Source: article doi:10.1101/471615v1 (biorxiv, 2018)

Target: T1, GAK (InCELL Pulse) (Homo sapiens, UniProt O14976)
T1 sequence (O14976 2-1311): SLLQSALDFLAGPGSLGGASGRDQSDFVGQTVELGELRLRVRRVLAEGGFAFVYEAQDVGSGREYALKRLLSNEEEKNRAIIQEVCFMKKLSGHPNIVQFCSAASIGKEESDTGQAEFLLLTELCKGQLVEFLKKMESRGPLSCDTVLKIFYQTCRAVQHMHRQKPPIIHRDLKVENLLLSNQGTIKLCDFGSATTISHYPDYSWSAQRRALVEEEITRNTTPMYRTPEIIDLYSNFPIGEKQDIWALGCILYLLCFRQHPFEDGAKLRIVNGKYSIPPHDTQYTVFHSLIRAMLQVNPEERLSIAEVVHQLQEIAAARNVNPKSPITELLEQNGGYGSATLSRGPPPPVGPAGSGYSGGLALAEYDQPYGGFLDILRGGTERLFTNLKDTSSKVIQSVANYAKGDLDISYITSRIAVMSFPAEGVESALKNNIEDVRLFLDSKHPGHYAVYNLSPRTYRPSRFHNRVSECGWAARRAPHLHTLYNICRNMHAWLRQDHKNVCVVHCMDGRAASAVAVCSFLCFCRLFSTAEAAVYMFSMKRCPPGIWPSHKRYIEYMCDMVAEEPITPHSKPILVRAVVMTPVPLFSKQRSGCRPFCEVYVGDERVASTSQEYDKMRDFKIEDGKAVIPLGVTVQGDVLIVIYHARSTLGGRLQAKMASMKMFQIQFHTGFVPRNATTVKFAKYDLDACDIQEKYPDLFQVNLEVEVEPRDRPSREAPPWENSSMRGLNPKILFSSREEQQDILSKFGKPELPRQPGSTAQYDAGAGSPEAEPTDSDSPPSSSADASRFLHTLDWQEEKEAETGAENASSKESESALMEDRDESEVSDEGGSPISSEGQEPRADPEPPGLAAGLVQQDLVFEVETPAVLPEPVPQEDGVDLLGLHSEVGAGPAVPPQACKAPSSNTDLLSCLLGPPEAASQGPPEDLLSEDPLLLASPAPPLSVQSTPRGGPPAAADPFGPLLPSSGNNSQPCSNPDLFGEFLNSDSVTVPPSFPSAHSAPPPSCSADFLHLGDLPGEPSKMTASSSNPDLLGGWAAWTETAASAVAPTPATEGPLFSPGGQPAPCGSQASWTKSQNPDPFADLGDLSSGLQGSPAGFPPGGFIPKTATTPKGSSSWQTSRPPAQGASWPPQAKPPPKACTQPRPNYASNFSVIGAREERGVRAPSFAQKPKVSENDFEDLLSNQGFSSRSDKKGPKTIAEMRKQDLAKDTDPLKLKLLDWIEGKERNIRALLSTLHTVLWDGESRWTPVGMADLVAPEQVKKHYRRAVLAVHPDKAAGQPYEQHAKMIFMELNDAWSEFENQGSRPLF
Assay: InCELL Pulse cellular target engagement
Format: cell-based
Conditions: in cells

Row | IC50 [µM] | Compound
1 | 0.045 | COc1cc2nccc(Nc3cc(OC)c(OC)c(OC)c3)c2cc1OC [compound 15, 6,7-disubstituted methoxy (15)]
2 | 6.7 | COc1cc(Nc2ncnc3ccc(C(F)(F)F)cc23)cc(OC)c1OC [compound 19, quinazoline (19)]
